Where a name gives a salt, the structure may show the parent alone.
Biological target: IKZF2 (Helios) (Homo sapiens (Human), UniProt Q96SW2+Q9UKS7)
Test: Prolabel quantification of IKZF2 protein levels in 293GT cells
Experimental: The Prolabel system from DiscoverX was used to develop high-throughput and quantitative assays to measure changes in IKZF1, IKZF2, and GSPT1 protein levels in response to compounds. […] The complementary fragment of beta-galactosidase (from DiscoverX), is added to the prolabel tag to form an active beta galactosidase enzyme whose activity can be precisely measured. In this way, the levels of a fusion protein with the prolabel tag can be quantified in cell lysates.
Lentiviral vectors, based on the Invitrogen pLenti6.2/V5 DEST backbone, were constructed that placed the prolabel tag upstream of IKZF1, IKZF2, or GSPT1 and expressed the fusion protein from a CMV promoter.
To ensure moderate and consistent expression of the prolabel fusion proteins across all cells in the population, stable cell lines were constructed from cells expressing a single copy of the construct. Lentivirus packaged with the constructs was made using the Virapower kit from Invitrogen.
The levels of prolabel tagged fusion proteins in compound treated cell lines were measured as follows: […]
Day 3, Plates were removed from the incubator and allowed to equilibrate at rt for 30 minutes. […] Plates were incubated at rt for three hours and luminescence was read using an Envision reader (Perkin Elmer) Data was analyzed and visualized using the Spotfire software package.

IKZF2 (Helios), sequence (Q9UKS7 whole entry): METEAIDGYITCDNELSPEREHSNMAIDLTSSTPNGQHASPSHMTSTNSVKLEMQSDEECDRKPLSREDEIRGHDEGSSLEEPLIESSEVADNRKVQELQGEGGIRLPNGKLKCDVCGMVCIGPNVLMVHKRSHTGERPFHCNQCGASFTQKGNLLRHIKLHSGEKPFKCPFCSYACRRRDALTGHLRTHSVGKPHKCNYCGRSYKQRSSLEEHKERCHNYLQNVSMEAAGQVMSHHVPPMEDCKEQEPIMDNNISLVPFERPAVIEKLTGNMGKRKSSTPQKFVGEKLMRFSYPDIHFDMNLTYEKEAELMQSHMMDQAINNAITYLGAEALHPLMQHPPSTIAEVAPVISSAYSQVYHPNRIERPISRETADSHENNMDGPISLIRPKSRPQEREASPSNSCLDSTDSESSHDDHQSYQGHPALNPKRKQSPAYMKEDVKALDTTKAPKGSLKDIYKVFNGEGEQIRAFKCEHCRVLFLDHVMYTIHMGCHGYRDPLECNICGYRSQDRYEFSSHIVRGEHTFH
IKZF2 (Helios), sequence (Q96SW2 whole entry): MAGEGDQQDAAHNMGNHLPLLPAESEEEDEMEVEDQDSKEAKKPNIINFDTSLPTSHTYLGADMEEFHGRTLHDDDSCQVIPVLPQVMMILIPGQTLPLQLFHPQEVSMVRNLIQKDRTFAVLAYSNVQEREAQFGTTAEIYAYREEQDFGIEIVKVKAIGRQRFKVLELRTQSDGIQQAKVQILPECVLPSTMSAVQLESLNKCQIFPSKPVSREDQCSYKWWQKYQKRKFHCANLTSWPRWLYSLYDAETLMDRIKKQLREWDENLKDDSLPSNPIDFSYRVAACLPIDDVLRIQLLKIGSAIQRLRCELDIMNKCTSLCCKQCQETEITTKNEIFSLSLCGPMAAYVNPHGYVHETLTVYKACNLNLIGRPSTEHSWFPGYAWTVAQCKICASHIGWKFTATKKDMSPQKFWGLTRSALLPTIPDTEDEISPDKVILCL
IKZF2 (Helios), sequence (Q16531 whole entry partner): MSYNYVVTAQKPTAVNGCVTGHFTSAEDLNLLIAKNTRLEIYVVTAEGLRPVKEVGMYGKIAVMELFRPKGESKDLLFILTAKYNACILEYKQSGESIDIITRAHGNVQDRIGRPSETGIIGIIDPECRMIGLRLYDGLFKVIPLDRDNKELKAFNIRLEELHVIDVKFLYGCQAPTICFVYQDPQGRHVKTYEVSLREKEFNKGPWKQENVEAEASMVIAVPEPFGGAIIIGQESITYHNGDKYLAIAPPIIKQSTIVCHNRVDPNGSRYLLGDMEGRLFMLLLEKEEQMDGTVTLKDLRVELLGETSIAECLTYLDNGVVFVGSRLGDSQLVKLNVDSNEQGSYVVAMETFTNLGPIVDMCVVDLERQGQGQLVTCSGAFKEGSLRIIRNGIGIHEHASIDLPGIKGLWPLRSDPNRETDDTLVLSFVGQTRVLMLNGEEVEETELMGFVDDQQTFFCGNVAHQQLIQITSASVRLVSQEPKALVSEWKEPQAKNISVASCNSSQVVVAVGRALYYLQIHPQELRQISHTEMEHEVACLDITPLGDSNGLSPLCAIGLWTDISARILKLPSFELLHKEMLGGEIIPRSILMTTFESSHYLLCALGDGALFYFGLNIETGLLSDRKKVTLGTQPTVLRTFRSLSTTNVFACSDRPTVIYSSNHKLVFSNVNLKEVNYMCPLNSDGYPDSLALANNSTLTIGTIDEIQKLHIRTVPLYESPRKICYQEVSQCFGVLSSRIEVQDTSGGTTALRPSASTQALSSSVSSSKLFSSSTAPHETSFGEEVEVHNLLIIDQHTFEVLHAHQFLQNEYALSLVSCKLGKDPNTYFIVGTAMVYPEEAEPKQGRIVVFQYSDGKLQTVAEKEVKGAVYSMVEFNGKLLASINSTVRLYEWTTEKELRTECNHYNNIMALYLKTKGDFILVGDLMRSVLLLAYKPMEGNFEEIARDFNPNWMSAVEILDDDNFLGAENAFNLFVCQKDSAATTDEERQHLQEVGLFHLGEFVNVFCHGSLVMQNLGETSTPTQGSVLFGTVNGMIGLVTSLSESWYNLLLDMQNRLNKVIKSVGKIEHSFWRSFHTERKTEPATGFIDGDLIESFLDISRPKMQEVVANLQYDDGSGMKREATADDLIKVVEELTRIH

Compound	Dmax at 10 µM (24 h, read-out: IKZF2 % protein reduction at 10 μM, 24 h) [%]	EC50 (read-out: IKZF2 EC50, Pro-label assay, 293GT cells, degradation) [nM]
CN[C@H]1CCCC[C@@H]1N(C)c1ccc2c(c1)CN(C1CCC(=O)NC1=O)C2=O (mixture of isomers) [I-9, Racemic trans-3-(5-(methyl(-2-(methylamino)cyclohexyl)amino)-1-oxoisoindolin-2-yl)piperidine-2,6-dione HC(O)OH Salt]	65	
CC(C)CN[C@H]1CCCC[C@@H]1Nc1ccc2c(c1)CN(C1CCC(=O)NC1=O)C2=O (stereo partly drawn) [I-15, 3-(5-(((1S,2S)-2-(isobutylamino)cyclohexyl)amino)-1-oxoisoindolin-2-yl)piperidine-2,6-dione]		940

From patent US11185537B2, “3-(5-amino-1-oxoisoindolin-2-yl)piperidine-2,6-dione derivatives and uses thereof” (Novartis AG, priority 2018, dated 2021)
